Results on 36 molecules are retold here after ChEMBL document CHEMBL1138133, “6-Acylamino-2-amino-4-methylquinolines as potent melanin-concentrating hormone 1 receptor antagonists: structure-activity exploration of eastern and western parts” (Bioorg Med Chem Lett, 2006).

Molecules are shown by their SMILES.

In one assay the target is T1, Melanin-concentrating hormone receptor 1 (Homo sapiens, UniProt Q99705). The experiment in a line: Displacement of [125I]MCH from human MCH1 receptor expressed in CHO cell by WC assay. In kind it is cell-based. On the technique in general: Displacement assays read how much labelled ligand stays bound in the presence of the test substance.
T1 sequence (Q99705 whole entry): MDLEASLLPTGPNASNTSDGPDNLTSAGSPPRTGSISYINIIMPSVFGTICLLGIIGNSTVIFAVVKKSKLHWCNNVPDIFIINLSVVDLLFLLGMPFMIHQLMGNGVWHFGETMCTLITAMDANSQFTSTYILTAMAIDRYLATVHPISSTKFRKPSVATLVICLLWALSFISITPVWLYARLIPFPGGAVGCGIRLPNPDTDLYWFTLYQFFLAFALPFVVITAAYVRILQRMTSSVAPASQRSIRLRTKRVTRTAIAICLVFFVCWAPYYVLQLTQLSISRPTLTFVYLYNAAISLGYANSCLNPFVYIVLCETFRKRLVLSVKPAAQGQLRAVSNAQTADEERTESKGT
Take `Cc1cc(N2CCCN(C)CC2)nc2ccc(NC(=O)COc3ccc(OC(F)(F)F)cc3)cc12`: the IC50 amounted to 3.7 nM. That is a single-digit nanomolar value. `Cc1ccc(/C=C/C(=O)Nc2ccc3nc(N(C)CCN(C)C)cc(C)c3c2)cc1` yielded an IC50 of 17 nM. Compared with the last molecule, the IC50 is about 4.6-fold higher. The same measure, in the same setting: the value for `Cc1cc(N(C)CCN(C)C)nc2ccc(NC(=O)c3ccc(-c4ccc(C(F)(F)F)cc4)cc3)cc12` was 10 nM; that for `Cc1cc(N2C[C@@H](C)N[C@@H](C)C2)nc2ccc(NC(=O)COc3ccc(OC(F)(F)F)cc3)cc12` was 44 nM. Consider `Cc1cc(N(C)CCN(C)C)nc2ccc(NC(=O)C3CCC(c4ccc(Cl)cc4)CC3)cc12` (stereo not drawn), for which the IC50 came to 23 nM. Compared with the last molecule, the IC50 is about 1.9-fold lower. Molecule `Cc1cc(N2CCN[C@@H](C)C2)nc2ccc(NC(=O)COc3ccc(OC(F)(F)F)cc3)cc12` came in with an IC50 of 3.7 nM. Against the preceding molecule, the IC50 is about 6.2-fold lower. `CCN(CC)CCNc1cc(C)c2cc(NC(=O)COc3ccc(OC(F)(F)F)cc3)ccc2n1` gave an IC50 of 3.2 nM. With `Cc1cc(NCC(C)(C)CN(C)C)nc2ccc(NC(=O)COc3ccc(OC(F)(F)F)cc3)cc12`, the IC50 worked out at 4.7 nM. This IC50 and that of the molecule before are within 1.5-fold of each other. Molecule `Cc1cc(NC2CCN(Cc3ccccc3)CC2)nc2ccc(NC(=O)COc3ccc(OC(F)(F)F)cc3)cc12` came in with an IC50 of 13 nM. Same read-out and setting: the figure for `Cc1cc(N2CCN[C@H](C)C2)nc2ccc(NC(=O)COc3ccc(OC(F)(F)F)cc3)cc12` is 4.1 nM; for `Cc1cc(NCCN2CCOCC2)nc2ccc(NC(=O)COc3ccc(OC(F)(F)F)cc3)cc12` it is 1.3 nM; for `Cc1cc(N(C)CCN(C)C)nc2ccc(NC(=O)CCc3ccc(OC(F)(F)F)cc3)cc12` it is 14 nM. The same measure, in the same setting: the figure for `Cc1cc(N2CCN(CCO)CC2)nc2ccc(NC(=O)COc3ccc(OC(F)(F)F)cc3)cc12` is 1.7 nM; for `Cc1cc(N(C)CCN(C)C)nc2ccc(NC(=O)COc3ccc(Cl)cc3)cc12` it is 33 nM; for `Cc1cc(N(C)CCN(C)C)nc2ccc(NC(=O)COc3ccc(OC(F)(F)F)cc3)cc12` it is 2.3 nM. The same measure, in the same setting: the figure for `Cc1cc(NCCN(C)C)nc2ccc(NC(=O)COc3ccc(OC(F)(F)F)cc3)cc12` is 5.3 nM. `Cc1cc(NCCN(C(C)C)C(C)C)nc2ccc(NC(=O)COc3ccc(OC(F)(F)F)cc3)cc12` had an IC50 of 7.1 nM.

Consider `Cc1cc(NCCN2CCCCC2)nc2ccc(NC(=O)COc3ccc(OC(F)(F)F)cc3)cc12`, for which the IC50 stood at 0.91 nM. The same measure, in the same setting: the figure for `Cc1cc(N2CCCNCC2)nc2ccc(NC(=O)COc3ccc(OC(F)(F)F)cc3)cc12` is 2 nM; for `Cc1cc(N(C)CCN(C)C)nc2ccc(NC(=O)c3ccc(-c4ccccc4)cc3)cc12` it is 5.7 nM.

`Cc1cc(N2C[C@@H](C)NC[C@@H]2C)nc2ccc(NC(=O)COc3ccc(OC(F)(F)F)cc3)cc12` (racemic) had a half-inhibitory concentration (IC50) of 3.4 nM.

In a further assay the target is T1, Melanin-concentrating hormone receptor 1. The experiment in a line: Inhibition of human MCH1 receptor by SPA assay.
For the molecule `Cc1cc(N(C)CCN(C)C)nc2ccc(NC(=O)/C=C/c3ccccc3Cl)cc12`, the IC50 turned out to be 2540 nM. Still for that read-out and setting: the value for `Cc1cc(N2CCCN(C)CC2)nc2ccc(NC(=O)COc3ccc(OC(F)(F)F)cc3)cc12` was 20 nM; that for `Cc1ccc(/C=C/C(=O)Nc2ccc3nc(N(C)CCN(C)C)cc(C)c3c2)cc1` was 48 nM. The same measure, in the same setting: the figure for `Cc1cc(N2C[C@@H](C)N[C@@H](C)C2)nc2ccc(NC(=O)COc3ccc(OC(F)(F)F)cc3)cc12` is 87 nM.

As for `Cc1cc(N(C)CCN(C)C)nc2ccc(NC(=O)CCc3ccccc3)cc12`, the half-inhibitory concentration (IC50) is more than 10000 nM. On the same count and under the same terms, the figure for `Cc1cc(N(C)CCN(C)C)nc2ccc(NC(=O)C3CCC(c4ccc(Cl)cc4)CC3)cc12` (stereo not drawn) is 423 nM. On the same count and under the same terms, the value for `Cc1cc(N(C)CCN(C)C)nc2ccc(NC(=O)c3ccc(Oc4ccccc4)cc3)cc12` was 210 nM. Regarding `Cc1cc(N2CCN[C@@H](C)C2)nc2ccc(NC(=O)COc3ccc(OC(F)(F)F)cc3)cc12`, the IC50 came to 13 nM. Same read-out and setting: the figure for `CCN(CC)CCNc1cc(C)c2cc(NC(=O)COc3ccc(OC(F)(F)F)cc3)ccc2n1` is 15 nM. `Cc1cc(NCC(C)(C)CN(C)C)nc2ccc(NC(=O)COc3ccc(OC(F)(F)F)cc3)cc12`: half-maximal inhibition (IC50) required 16 nM. The molecule `Cc1cc(N(C)CCN(C)C)nc2ccc(NC(=O)CNc3ccc(Cl)cc3Cl)cc12` showed an IC50 of 125 nM.

Molecule `Cc1cc(N(C)CCN(C)C)nc2ccc(NC(=O)COc3ccccc3)cc12` displayed an IC50 of more than 10000 nM. For `Cc1cc(N(C)CCN(C)C)nc2ccc(NC(=O)/C=C/c3ccccc3)cc12`, inhibition was half-maximal at 6970 nM (IC50). This counts as single-digit micromolar. `C/C(=C\c1ccccc1)C(=O)Nc1ccc2nc(N(C)CCN(C)C)cc(C)c2c1` had an IC50 of 9460 nM.

Take `Cc1cc(N(C)CCN(C)C)nc2ccc(NC(=O)Cc3ccc(-c4ccccc4)cc3)cc12`: the IC50 was found to be 3280 nM. `Cc1cc(NC2CCN(Cc3ccccc3)CC2)nc2ccc(NC(=O)COc3ccc(OC(F)(F)F)cc3)cc12` registered an IC50 of 40 nM. With `Cc1oc(-c2ccccc2)nc1CC(=O)Nc1ccc2nc(N(C)CCN(C)C)cc(C)c2c1`, the IC50 amounted to 568 nM. Compared with the last molecule, the IC50 is about 14-fold higher. As to `Cc1cc(N(C)CCN(C)C)nc2ccc(NC(=O)NCc3ccc(Br)cc3)cc12`, the half-inhibitory concentration (IC50) came out at 271 nM.

In turn, `Cc1cc(N2CCN[C@H](C)C2)nc2ccc(NC(=O)COc3ccc(OC(F)(F)F)cc3)cc12` came in with an IC50 of 18 nM. Take `Cc1cc(N(C)CCN(C)C)nc2ccc(NC(=O)c3ccc(Oc4ccccc4)nc3)cc12`: the IC50 amounted to 105 nM. Molecule `Cc1cc(NCCN2CCOCC2)nc2ccc(NC(=O)COc3ccc(OC(F)(F)F)cc3)cc12` yielded an IC50 of 9.6 nM.

As to `Cc1cc(N(C)CCN(C)C)nc2ccc(NC(=O)CCc3ccc(OC(F)(F)F)cc3)cc12`, the IC50 is 40 nM. Against the preceding molecule, the IC50 is about 4.2-fold higher. On to `Cc1cc(N2CCN(CCO)CC2)nc2ccc(NC(=O)COc3ccc(OC(F)(F)F)cc3)cc12`, for which it took 5 nM to reach half-maximal inhibition (IC50). This IC50 lies about 8-fold lower than the previous one.

`Cc1cc(N(C)CCN(C)C)nc2ccc(NC(=O)c3cc4ccccc4s3)cc12` registered an IC50 of 2100 nM. Against the preceding molecule, the IC50 is about 420-fold higher. For the molecule `Cc1cc(N(C)CCN(C)C)nc2ccc(NC(=O)COc3ccc(Cl)cc3)cc12`, it took 83 nM to reach half-maximal inhibition (IC50).

Take `Cc1cc(N(C)CCN(C)C)nc2ccc(NC(=O)COc3ccc(OC(F)(F)F)cc3)cc12`: inhibition was half-maximal at 18 nM (IC50). `Cc1cc(NCCN(C)C)nc2ccc(NC(=O)COc3ccc(OC(F)(F)F)cc3)cc12` came in with an IC50 of 18 nM. Turning to `Cc1cc(N(C)CCN(C)C)nc2ccc(NC(=O)c3ccc(OC(F)(F)F)cc3)cc12`, the IC50 turned out to be 2760 nM. `Cc1cc(N(C)CCN(C)C)nc2ccc(NC(=O)CCc3nc(-c4ccccc4)c(-c4ccccc4)o3)cc12` registered an IC50 of 162 nM.

In turn, `Cc1cc(NCCN2CCCCC2)nc2ccc(NC(=O)COc3ccc(OC(F)(F)F)cc3)cc12` gave an IC50 of 5.3 nM.

Molecule `Cc1cc(N(C)CCN(C)C)nc2ccc(NC(=O)c3ccc(-c4ccccc4)cc3)cc12` yielded an IC50 of 42 nM.

Consider `Cc1cc(N2C[C@@H](C)NC[C@@H]2C)nc2ccc(NC(=O)COc3ccc(OC(F)(F)F)cc3)cc12` (racemic), for which inhibition was half-maximal at 20 nM (IC50).

Molecule `Cc1cc(N(C)CCN(C)C)nc2ccc(NC(=O)C3CC3c3ccccc3)cc12` (racemic) registered an IC50 of more than 10000 nM.

The target is the same in a further assay. The experiment in a line: […] human MCH1 receptor expressed in CHO cell by IP3 assay. In kind it is cell-based.
As to `Cc1cc(N2CCCN(C)CC2)nc2ccc(NC(=O)COc3ccc(OC(F)(F)F)cc3)cc12`, the IC50 stood at 244 nM.

In turn, `Cc1ccc(/C=C/C(=O)Nc2ccc3nc(N(C)CCN(C)C)cc(C)c3c2)cc1` registered an IC50 of 478 nM. `Cc1cc(N(C)CCN(C)C)nc2ccc(NC(=O)C3CCC(c4ccc(Cl)cc4)CC3)cc12` (stereo not drawn): the IC50 stood at 393 nM.

For the molecule `Cc1cc(NC2CCN(Cc3ccccc3)CC2)nc2ccc(NC(=O)COc3ccc(OC(F)(F)F)cc3)cc12`, the IC50 is 91 nM.

`Cc1cc(N2CCN[C@H](C)C2)nc2ccc(NC(=O)COc3ccc(OC(F)(F)F)cc3)cc12`: the IC50 came to 100 nM. This IC50 and that of the molecule before are within 1.5-fold of each other. Take `Cc1cc(N(C)CCN(C)C)nc2ccc(NC(=O)COc3ccc(Cl)cc3)cc12`: the IC50 came to 807 nM. On the same count and under the same terms, the value for `Cc1cc(N(C)CCN(C)C)nc2ccc(NC(=O)COc3ccc(OC(F)(F)F)cc3)cc12` was 31 nM. Consider `Cc1cc(NCCN2CCCCC2)nc2ccc(NC(=O)COc3ccc(OC(F)(F)F)cc3)cc12`, for which the IC50 came to 33 nM. This IC50 and that of the molecule before are within 1.5-fold of each other. In the case of `Cc1cc(N(C)CCN(C)C)nc2ccc(NC(=O)c3ccc(-c4ccccc4)cc3)cc12`, the IC50 worked out at 25 nM. This IC50 and that of the molecule before are within 1.5-fold of each other.

The IC50 is the point on the concentration scale where inhibition reaches its midpoint.
